# Measurements: patent US3953293A, “Process for the preparation of xylostasin” (Takeda Chemical Industries, Ltd., priority 1972, dated 1976)
# Columns and labels:
# [1] = Acute toxicity by intravenous injection into mice; conditions: mouse, in vivo, free base
# Experimental: The acute toxicity of xylostasin was examined by intravenous injection into mice. The LD50 value for the free base was approximately 1,000 mg/kg.
# Escherichia coli 0-111 = test: Anti-infection test in mice; format: in vivo; conditions: mice infected with Escherichia coli 0-111; single subcutaneous dose of 10 mg/kg immediately after infection
# [2] = tested on: Mycobacterium smegmatis IFO 3083; test: Minimal inhibitory concentration by the agar dilution method; format: cell-based; conditions: Mycolicibacterium smegmatis, IFO3083, glycerin bouillon agar
# Excerpt: (§1) Minimal inhibitory concentrations by the
# (§2) The media used for the test are bouillon agar for the common bacteria and glycerin bouillon agar for acid fast bacteria.
# Bacillus cereus IFO 3466 = test: as above; format: cell-based; conditions: IFO3466, bouillon agar
# Excerpt: as §1, §2
# [3] = tested on: Staphylococcus aureus FDA 209P; test: as above; format: cell-based; conditions: FDA209P, bouillon agar
# Excerpt: as §1, §2
# [4] = tested on: Bacillus subtilis PCI 219; test: as above; format: cell-based; conditions: PCI219, bouillon agar
# Excerpt: as §1, §2
# Shigella flexneri EW-10 = test: as above; format: cell-based; conditions: EW10, bouillon agar
# Excerpt: as §1, §2
# Bacillus brevis IFO 3331 = test: as above; format: cell-based; conditions: Brevibacillus brevis, IFO3331, bouillon agar
# Excerpt: as §1, §2
# [5] = tested on: Mycobacterium avium IFO 3153; test: as above; format: cell-based; conditions: IFO3153, glycerin bouillon agar
# Excerpt: as §1, §2
# [6] = tested on: Mycobacterium phlei IFO 3158; test: as above; format: cell-based; conditions: Mycolicibacterium phlei, IFO3158, glycerin bouillon agar
# Excerpt: as §1, §2
# [7] = tested on: Escherichia coli IFO 3044; test: as above; format: cell-based; conditions: IFO3044, bouillon agar
# Excerpt: as §1, §2
# [8] = tested on: Mycobacterium avium (Neomycin-resistant); test: as above; format: cell-based; conditions: read-out: Minimal inhibitory concentration
# Excerpt: as §1, §2
# [9] = tested on: Proteus vulgaris IFO 3045; test: as above; format: cell-based; conditions: IFO3045, bouillon agar
# Excerpt: as §1, §2
# [10] = tested on: Pseudomonas aeruginosa IFO 3080; test: as above; format: cell-based; conditions: IFO3080, bouillon agar
# Excerpt: as §1, §2
# Sarcina lutea IFO 3232 = test: as above; format: cell-based; conditions: Micrococcus luteus, IFO3232, bouillon agar
# Excerpt: as §1, §2
# [11] = tested on: Mycobacterium avium (Streptomycin-resistant); test: as above; format: cell-based; conditions: read-out: Minimal inhibitory concentration
# Excerpt: as §1, §2
smiles,measurement,setting,value
"NC[C@H]1O[C@H](O[C@H]2[C@H](O[C@@H]3O[C@H](CO)[C@H](O)[C@H]3O)[C@@H](O)[C@H](N)C[C@@H]2N)[C@H](N)[C@@H](O)[C@@H]1O [xylostasin, O-β-D-xylofuranosyl-(1 → 5)-O-[α-2,6-diamino-2,6-dideoxy-D-glucopyranosyl-(1 → 4)]-2-deoxystreptamine]",LD50,[1],~1000 mg/kg
same,death of the mice,Escherichia coli 0-111,completely prevented
same,MIC,[2],1.6 µg/mL
same,MIC,Bacillus cereus IFO 3466,50 µg/mL
same,MIC,[3],6.25 µg/mL
same,MIC,[4],3.12 µg/mL
same,MIC,Shigella flexneri EW-10,12.5 µg/mL
same,MIC,Bacillus brevis IFO 3331,25 µg/mL
same,MIC,[5],1.6 µg/mL
same,MIC,[6],1.6 µg/mL
same,MIC,[7],6.25 µg/mL
same,MIC,[8],> 50 µg/mL
same,MIC,[9],50 µg/mL
same,MIC,[10],> 50 µg/mL
same,MIC,Sarcina lutea IFO 3232,25 µg/mL
same,MIC,[11],3.12 µg/mL
